According to PubChem BioAssay AID1845217 (Molecular Pharmacology Branch, DTP, NCI, 2023):

Test system: VA-ES-BJ tumor spheroid viability
Experiment: Anticancer human tumor VA-ES-BJ cell line growth inhibition;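 note: spheroids exposed to compounds for seven days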;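 for viability, T/C: percent of DMSO vehicle control viability so 100% = untreated growth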
Conditions: spheroids with HUVEC and MSC; for IC50: curve of first compound; for viability, T/C: stronger effect = lower value
Method in brief: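 Complex tumor spheroids combined malignant cells with endothelial cells and mesenchymal stem cells. DNA-damaging drugs and DNA repair inhibitors were tested alone and in combination, at half-log dilutions down from clinical Cmax (top 10 microM if Cmax unknown), 0.25% DMSO final.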

[1] = second compound 0.003 µM, first compound 0.0316 µM
[2] = second compound 0.003 µM, first compound 0.1 µM
[3] = second compound 0.003 µM, first compound 0.316 µM
[4] = second compound 0.003 µM, first compound 1 µM
[5] = second compound 0.003 µM, first compound 3.16 µM
[6] = second compound 0.003 µM, first compound 10 µM
[7] = second compound 0.00949 µM, first compound 0.0316 µM
[8] = second compound 0.00949 µM, first compound 0.1 µM
[9] = second compound 0.00949 µM, first compound 0.316 µM
[10] = second compound 0.00949 µM, first compound 1 µM
[11] = second compound 0.00949 µM, first compound 3.16 µM
[12] = second compound 0.00949 µM, first compound 10 µM
[13] = second compound 0.03 µM, first compound 0.0316 µM
[14] = second compound 0.03 µM, first compound 0.1 µM
[15] = second compound 0.03 µM, first compound 0.316 µM
[16] = second compound 0.03 µM, first compound 1 µM
[17] = second compound 0.03 µM, first compound 3.16 µM
[18] = second compound 0.03 µM, first compound 10 µM
[19] = second compound 0.0949 µM, first compound 0.0316 µM
[20] = second compound 0.0949 µM, first compound 0.1 µM
[21] = second compound 0.0949 µM, first compound 0.316 µM
[22] = second compound 0.0949 µM, first compound 1 µM
[23] = second compound 0.0949 µM, first compound 3.16 µM
[24] = second compound 0.0949 µM, first compound 10 µM
[25] = second compound 0.3 µM, first compound 0.0316 µM
[26] = second compound 0.3 µM, first compound 0.1 µM
[27] = second compound 0.3 µM, first compound 0.316 µM
[28] = second compound 0.3 µM, first compound 1 µM
[29] = second compound 0.3 µM, first compound 3.16 µM
[30] = second compound 0.3 µM, first compound 10 µM

For CC(C)n1c(=O)n(C)c2cnc3cc(F)c(-c4ccc(OCCCN5CCCCC5)nc4)cc3c21 + CC[C@@]1(O)C(=O)OCc2c1cc1n(c2=O)Cc2cc3c(CN(C)C)c(O)ccc3nc2-1, the IC50 (second compound 0.003 µM) was 3970 nM, the IC50 (second compound 0.00949 µM) was < 31.6 nM and the IC50 (second compound 0.03 µM) was < 31.6 nM. For the same compound, the IC50 (second compound 0.0949 µM) was < 31.6 nM, the IC50 (second compound 0.3 µM) was < 31.6 nM and the viability, T/C [1] was 82.7%. It also gave a viability, T/C [2] of 76%, a viability, T/C [3] of 80% and a viability, T/C [4] of 77.3%. It also gave a viability, T/C [5] of 54.7%, a viability, T/C [6] of 30.8% and a viability, T/C [7] of 50.8%. For the same compound, the viability, T/C [8] was 46.3%, the viability, T/C [9] was 45.3% and the viability, T/C [10] was 44.5%. For the same compound, the viability, T/C [11] was 37.3%, the viability, T/C [12] was 20.5% and the viability, T/C [13] was 30.3%. It also gave a viability, T/C [14] of 27.4%, a viability, T/C [15] of 31.4% and a viability, T/C [16] of 26.9%. It also gave a viability, T/C [17] of 27.5%, a viability, T/C [18] of 11.9% and a viability, T/C [19] of 6.85%. It also gave a viability, T/C [20] of 6.85%, a viability, T/C [21] of 7.33% and a viability, T/C [22] of 7.9%. It also gave a viability, T/C [23] of 8.2%, a viability, T/C [24] of 7.69% and a viability, T/C [25] of 4.4%. For the same compound, the viability, T/C [26] was 4.06%, the viability, T/C [27] was 3.67% and the viability, T/C [28] was 3.49%. The viability, T/C [29] was 3.07% and the viability, T/C [30] was 2.74%.

Work on COc1ccc([C@@H](O)c2cc(-c3ncnc4cc(N5CCOCC5)ccc34)c(F)cc2Cl)nn1 + CC[C@@]1(O)C(=O)OCc2c1cc1n(c2=O)Cc2cc3c(CN(C)C)c(O)ccc3nc2-1 yielded an IC50 (second compound 0.003 µM) of 949 nM, an IC50 (second compound 0.00949 µM) of 612 nM and an IC50 (second compound 0.03 µM) of 78.7 nM. The IC50 (second compound 0.0949 µM) was < 31.6 nM, the IC50 (second compound 0.3 µM) was < 31.6 nM and the viability, T/C [1] was 94.8%. It also gave a viability, T/C [2] of 93.4%, a viability, T/C [3] of 71% and a viability, T/C [4] of 52.6%. The viability, T/C [5] was 19.9%, the viability, T/C [6] was 9.59% and the viability, T/C [7] was 89.4%. For the same compound, the viability, T/C [8] was 77.2%, the viability, T/C [9] was 65.4% and the viability, T/C [10] was 40.6%. For the same compound, the viability, T/C [11] was 15.8%, the viability, T/C [12] was 8.03% and the viability, T/C [13] was 51.3%. For the same compound, the viability, T/C [14] was 50.9%, the viability, T/C [15] was 40.5% and the viability, T/C [16] was 26.2%. For the same compound, the viability, T/C [17] was 13.8%, the viability, T/C [18] was 7.2% and the viability, T/C [19] was 8.47%. For the same compound, the viability, T/C [20] was 9.28%, the viability, T/C [21] was 9.08% and the viability, T/C [22] was 8.66%. For the same compound, the viability, T/C [23] was 7.19%, the viability, T/C [24] was 6.29% and the viability, T/C [25] was 6.47%. The viability, T/C [26] was 6.18%, the viability, T/C [27] was 7.16% and the viability, T/C [28] was 7.21%. The viability, T/C [29] was 6.83% and the viability, T/C [30] was 6.76%.

With O=C(c1cc(Cc2n[nH]c(=O)c3ccccc23)ccc1F)N1CCN(C(=O)C2CC2)CC1 + COc1cc2c(cc1O)CCNC21CSC2c3c(OC(C)=O)c(C)c4c(c3C(COC1=O)N1C(O)C3Cc5cc(C)c(OC)c(O)c5C(C21)N3C)OCO4 the IC50 (second compound 30 pM) was 19000 nM, the IC50 (second compound 94.9 pM) was 11100 nM and the IC50 (second compound 0.0003 µM) was < 94.9 nM. For the same compound, the IC50 (second compound 0.000949 µM) was < 94.9 nM, the IC50 (second compound 0.003 µM) was < 94.9 nM and the viability, T/C (second compound 30 pM, first compound 0.0949 µM) was 86%. For the same compound, the viability, T/C (second compound 30 pM, first compound 0.3 µM) was 95.8%, the viability, T/C (second compound 30 pM, first compound 0.949 µM) was 99% and the viability, T/C (second compound 30 pM, first compound 3 µM) was 91%. The viability, T/C (second compound 30 pM, first compound 9.49 µM) was 65%, the viability, T/C (second compound 30 pM, first compound 30 µM) was 40.1% and the viability, T/C (second compound 94.9 pM, first compound 0.0949 µM) was 90.5%. For the same compound, the viability, T/C (second compound 94.9 pM, first compound 0.3 µM) was 84.7%, the viability, T/C (second compound 94.9 pM, first compound 0.949 µM) was 86.9% and the viability, T/C (second compound 94.9 pM, first compound 3 µM) was 76.9%. It also gave a viability, T/C (second compound 94.9 pM, first compound 9.49 µM) of 54.1%, a viability, T/C (second compound 94.9 pM, first compound 30 µM) of 24.4% and a viability, T/C (second compound 0.0003 µM, first compound 0.0949 µM) of 44.3%. It also gave a viability, T/C (second compound 0.0003 µM, first compound 0.3 µM) of 40.7%, a viability, T/C (second compound 0.0003 µM, first compound 0.949 µM) of 43.6% and a viability, T/C (second compound 0.0003 µM, first compound 3 µM) of 33.2%. For the same compound, the viability, T/C (second compound 0.0003 µM, first compound 9.49 µM) was 16.1%, the viability, T/C (second compound 0.0003 µM, first compound 30 µM) was 5.05% and the viability, T/C (second compound 0.000949 µM, first compound 0.0949 µM) was 3.35%. It also gave a viability, T/C (second compound 0.000949 µM, first compound 0.3 µM) of 2.46%, a viability, T/C (second compound 0.000949 µM, first compound 0.949 µM) of 3.04% and a viability, T/C (second compound 0.000949 µM, first compound 3 µM) of 2.86%. For the same compound, the viability, T/C (second compound 0.000949 µM, first compound 9.49 µM) was 1.46%, the viability, T/C (second compound 0.000949 µM, first compound 30 µM) was 0.33% and the viability, T/C (second compound 0.003 µM, first compound 0.0949 µM) was 1.2%. For the same compound, the viability, T/C (second compound 0.003 µM, first compound 0.3 µM) was 1.64%, the viability, T/C (second compound 0.003 µM, first compound 0.949 µM) was 1.77% and the viability, T/C (second compound 0.003 µM, first compound 3 µM) was 2.03%. For the same compound, the viability, T/C (second compound 0.003 µM, first compound 9.49 µM) was 3.45% and the viability, T/C (second compound 0.003 µM, first compound 30 µM) was 4.01%.
